Data: PMC12000511, “Molecular basis for the assembly of the Vps5-Vps17 SNX-BAR proteins with Retromer” (Nature Communications, 2025)
Where no end group is shown, it is not given here.

Columns and labels:
[1] = target: ctRetromer (Thermochaetoides thermophila, UniProt G0RZB5+G0S709); assay: ITC, binding to ctRetromer; set-up: species or system Chaetomium thermophilum; conditions: ITC 25 °C, pH 7.5, 200 mM NaCl
Description: (§1) All the bacterial constructs were expressed in BL21(DE3) competent cells using standard isopropyl 1-thio-β-D-galactopyranoside induction or autoinduction method as described previously[39],[72],[73]. To obtain the Retromer trimer complex, the GST-tagged Vps29 and Vps35 co-expressed cell pellet were mixed with His-Vps26 and resuspended in lysis buffer containing 50 mM Tris-HCl pH 7.5, 200 mM NaCl, 5% glycerol, 50 μg/ml benzamidine and DNase I before passed through a Constant System TS-Series cell disruptor. […] For all constructs, the lysate was clarified by centrifugation and the supernatant was loaded onto either Talon® resin (Clonetech) or glutathione sepharose (GE healthcare) for initial purification. To obtain the correct stoichiometry ratio of the Retromer complex, both Talon® resin and glutathione sepharose (GE healthcare) were applied. […] The flow-through containing complex was further purified using size-exclusion chromatography (SEC) equilibrated with a buffer containing 50 mM Tris-HCl pH 7.5, 200 mM NaCl, 2 mM β-ME. […] To avoid the non-specific cleavage by the residual proteases such as thrombin, a tablet of protease inhibitor cocktail was added into the complex mixture. To remove the unbound fractions, the complex mixture was further purified using Superose 6 increase 10/300 GL column using the SEC buffer described above.
In brief, the clarified lysate was loaded onto glutathione sepharose (GE healthcare) and eluted using elution buffer containing 50 mM Tris-HCl pH 7.5, 200 mM NaCl, 5% glycerol, 20 mM glutathione reduced and 50 μg/ml benzamidine. The flow-through was further purified using SEC as the final purification step. To avoid the degradation, the constructs containing N-terminal disordered parts of Vps5 and Vps17 were used in fresh and experiments were finished within 3 days after purification.
(§2) All the proteins used for ITC experiments were prepared in buffer containing 50 mM Tris-HCl pH 7.5, 200 mM NaCl, 2 mM β-ME. […] In all cases, the ITC titration sequence consisted of an initial 0.4 μl (not used in data processing) followed by 12 serial injections of 3.22 μl each with 180 s intervals. The resulting titration data were integrated with Malvern software package by fitting and normalized data to a single-site binding model, yielding the thermodynamic parameters Kd, ∆H, ∆G and −T∆S for all binding experiments. The stoichiometry was refined initially, and if the value was close to 1, then N was set to exactly 1.0 for calculation. Data presented are the mean of triplicate titrations for each experiment.

[2] = target: T1, mVps29 (Mus musculus, UniProt Q9QZ88); assay: Crystal structure of mVPS29–ctVps5_71–80 peptide complex; conditions: 1.7 Å, two molecules in asymmetric unit
T1 construct: GST (thrombin site) (N, cleaved yes); made in house; host or cells: E. coli BL21(DE3)
Description: All crystals were grown by the hanging-drop vapor diffusion method at 20 °C. […] Best quality crystals were obtained by mixing 1 µL of protein with 1 µL of well solution containing 40 mM KH2PO4, 16% PEG8000 and 5% glycerol at room temperature. Crystals grew after 13 days were cryoprotected in reservoir solution with additional 16% glycerol. X-ray diffraction data were carried out at the Australian Synchrotron MX2 beamline at 100 K.
Data collected from the Australian Synchrotron were indexed and integrated by AutoXDS and scaled using Aimless (version 0.7.4)[75]. Both structures were solved by molecular replacement using Phaser (version 2.5.6)[76] with native mVps29 structure as the initial model template. Both structures contain two copies of mVps29 in asymmetric unit with the electron density of peptide clearly visible. The refinement was performed using Phenix (version 1.19.2) with inspection of resulting model in Coot (version 0.8.9.2) guided by Fo–Fc difference maps[77]. Molprobity was used to evaluate the quality geometry of the refined structure. Molecular figures were generated using PyMOL (version 2.5.5) and structural comparison was performed using DALI and Foldseek[79],[80]. Sequence conservation was mapped on the structure with ConSurf server.

[3] = target: T1, mVps29; assay: ITC, binding to mVps29; conditions: ITC 25 °C, pH 7.5; mean of triplicate titrations
Description: as §1, §2

Chain of ctRetromer (G0RZB5 entry or part of it): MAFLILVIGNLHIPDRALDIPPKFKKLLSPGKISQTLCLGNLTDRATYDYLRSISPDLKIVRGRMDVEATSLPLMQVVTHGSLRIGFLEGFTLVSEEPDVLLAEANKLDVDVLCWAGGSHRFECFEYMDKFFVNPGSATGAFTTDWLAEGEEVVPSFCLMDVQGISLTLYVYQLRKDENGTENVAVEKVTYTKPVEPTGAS
Chain of ctRetromer (G0S709 entry or part of it): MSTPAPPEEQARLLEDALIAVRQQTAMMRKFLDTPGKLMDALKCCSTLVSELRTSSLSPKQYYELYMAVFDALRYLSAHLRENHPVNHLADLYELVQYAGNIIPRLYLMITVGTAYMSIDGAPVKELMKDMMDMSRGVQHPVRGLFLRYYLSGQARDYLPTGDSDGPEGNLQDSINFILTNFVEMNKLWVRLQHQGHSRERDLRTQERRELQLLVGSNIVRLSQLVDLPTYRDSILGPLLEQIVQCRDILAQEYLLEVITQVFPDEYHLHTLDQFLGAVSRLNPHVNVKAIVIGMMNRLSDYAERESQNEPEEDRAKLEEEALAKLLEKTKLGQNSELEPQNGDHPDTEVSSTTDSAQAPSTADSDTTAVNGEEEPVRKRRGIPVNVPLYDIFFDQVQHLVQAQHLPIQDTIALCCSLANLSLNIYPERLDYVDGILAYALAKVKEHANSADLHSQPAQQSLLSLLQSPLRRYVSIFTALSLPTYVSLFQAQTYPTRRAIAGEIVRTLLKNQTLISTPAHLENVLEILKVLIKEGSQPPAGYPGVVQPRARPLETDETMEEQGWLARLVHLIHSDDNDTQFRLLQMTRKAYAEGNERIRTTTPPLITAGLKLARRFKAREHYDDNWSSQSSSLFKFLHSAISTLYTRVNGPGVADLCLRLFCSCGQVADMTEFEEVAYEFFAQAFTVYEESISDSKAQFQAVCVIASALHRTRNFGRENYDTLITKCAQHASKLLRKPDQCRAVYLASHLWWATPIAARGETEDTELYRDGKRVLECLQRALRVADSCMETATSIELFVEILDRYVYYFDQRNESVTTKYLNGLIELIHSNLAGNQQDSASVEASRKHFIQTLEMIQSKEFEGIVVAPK
Chain of ctRetromer (G0S0E6 entry or part of it, further chain): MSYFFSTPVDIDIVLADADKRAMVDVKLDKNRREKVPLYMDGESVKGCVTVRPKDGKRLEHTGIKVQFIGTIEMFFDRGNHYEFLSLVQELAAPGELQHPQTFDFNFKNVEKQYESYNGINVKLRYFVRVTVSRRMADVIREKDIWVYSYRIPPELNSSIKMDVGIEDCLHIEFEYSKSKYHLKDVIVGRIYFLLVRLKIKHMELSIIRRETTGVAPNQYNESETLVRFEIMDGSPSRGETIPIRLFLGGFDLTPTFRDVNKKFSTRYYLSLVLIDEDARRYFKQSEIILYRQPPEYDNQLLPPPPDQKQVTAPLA

DDPLGPLGA [ctVps5_71–80 peptide]
binding to ctRetromer [1]: very weak binding | binding site on VPS29 [2]: binds to the conserved hydrophobic groove of VPS29 | ΔG [3]: -5.80 ± 0.10 kcal/mol | ΔH [3]: -8.00 ± 1.10 kcal/mol
